As a reminder, the IC50 is the concentration needed to halve the response being measured.

Consider 28 molecules from PMC7470115, “Design, synthesis and biological evaluation of novel tetrahydrothieno [2,3-c]pyridine substitued benzoyl thiourea derivatives as PAK1 inhibitors in triple negative breast cancer” (Journal of Enzyme Inhibition and Medicinal Chemistry, 2020).

Sequence of PAK1 (Q13153 whole entry): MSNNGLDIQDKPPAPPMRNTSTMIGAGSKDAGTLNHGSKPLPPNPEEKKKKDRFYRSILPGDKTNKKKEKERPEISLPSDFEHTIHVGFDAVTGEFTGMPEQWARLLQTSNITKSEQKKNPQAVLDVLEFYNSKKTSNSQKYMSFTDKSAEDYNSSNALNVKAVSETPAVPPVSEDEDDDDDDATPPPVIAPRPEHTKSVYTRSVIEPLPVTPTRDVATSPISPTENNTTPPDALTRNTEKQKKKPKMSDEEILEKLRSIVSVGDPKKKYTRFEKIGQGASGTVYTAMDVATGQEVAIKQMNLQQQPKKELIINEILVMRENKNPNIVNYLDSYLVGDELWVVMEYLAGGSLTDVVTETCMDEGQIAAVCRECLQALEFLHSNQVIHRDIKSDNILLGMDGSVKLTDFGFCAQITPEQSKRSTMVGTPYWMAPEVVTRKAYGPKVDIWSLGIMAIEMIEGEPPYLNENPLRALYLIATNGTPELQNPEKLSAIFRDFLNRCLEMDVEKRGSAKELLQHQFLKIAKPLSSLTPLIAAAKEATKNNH

This test has as its target PAK1 (Homo sapiens, UniProt Q13153). The test can be described thus: PAK1 enzymatic assay (Kinase-Glo Plus / ADP-Glo luminescence). Format: biochemical. Conditions: tested in triplicate, mean ± SD; 50 µM ATP; read-out: Kinase inhibitory activity (IC50, μM) PAK1. On the procedure: These assays were carried out as described previously. All of the enzymatic reactions were conducted at 30 °C for 40 min. The 50 µl reaction mixture contains 40 mM Tris, pH 7.4, 10 mM MgCl2, 0.1 mg/ml BSA, 1 mM DTT, 50 µM ATP, 0.2 μg/ml PAK1 and 100 uM lipid substrate. The compounds were diluted in 10% DMSO and 5 µl of the dilution was added to a 50 µl reaction so that the final concentration of DMSO is 1% in all of the reactions. The assay was performed using the Kinase-Glo Plus luminescence kinase assay kit and ADP-Glo Plus luminescence kinase assay kit. It measures kinase activity by quantitating the amount of ATP remaining in solution following a kinase reaction. The luminescent signal from the assay is correlated with the amount of ATP present and is inversely correlated with the amount of kinase activity. The IC50 values were calculated using nonlinear regression with normalised dose − response fit using Prism GraphPad software.
(Kinase-Glo reads ATP consumption through a luciferase reaction.)
In the case of `CC(C)(C)OC(=O)N1CCc2c(sc(NC(=S)NC(=O)c3ccccc3)c2C(N)=O)C1` [Compound 5a, Tert-butyl-2–(3-benzoylthioureido)-3-carbamoyl-4,7-dihydrothieno[2,3-c]pyridine-6(5H)-carboxylate], the IC50 was 7.64 ± 0.72 µM.

For `Cc1ccc(C(=O)NC(=S)Nc2sc3c(c2C(N)=O)CCN(C(=O)OC(C)(C)C)C3)cc1` [Compound 5b, Tert-butyl-3-carbamoyl-2–(3-(4-methylbenzoyl)thioureido)-4,7-dihydrothieno[2,3-c]pyridine-6(5H)-carboxylate], the IC50 was found to be 7.28 ± 0.78 µM.

Take `Cc1ccccc1C(=O)NC(=S)Nc1sc2c(c1C(N)=O)CCN(C(=O)OC(C)(C)C)C2` [Compound 5c, Tert-butyl-3-carbamoyl-2–(3-(2-methylbenzoyl)thioureido)-4,7-dihydrothieno[2,3-c]pyridine-6(5H)-carboxylate]: the IC50 is 6.21 ± 0.69 µM.

As for `Cc1cccc(C(=O)NC(=S)Nc2sc3c(c2C(N)=O)CCN(C(=O)OC(C)(C)C)C3)c1` [Compound 5d, Tert-butyl-3-carbamoyl-2–(3-(3-methylbenzoyl)thioureido)-4,7-dihydrothieno[2,3-c]pyridine-6(5H)-carboxylate], the IC50 stood at 4.32 ± 0.51 µM.

`Cc1cc(C)c(C(=O)NC(=S)Nc2sc3c(c2C(N)=O)CCN(C(=O)OC(C)(C)C)C3)c(C)c1` [Compound 5e, Tert-butyl-3-carbamoyl-2–(3-(2,4,6-trimethylbenzoyl)thioureido)-4,7-dihydrothieno[2,3-c]pyridine-6(5H)-carboxylate]: the half-inhibitory concentration (IC50) came to 11.2 ± 1.01 µM.

As for `COc1ccc(C(=O)NC(=S)Nc2sc3c(c2C(N)=O)CCN(C(=O)OC(C)(C)C)C3)cc1` [Compound 5f, Tert-butyl-3-carbamoyl-2–(3-(4-methoxybenzoyl)thioureido)-4,7-dihydrothieno[2,3-c]pyridine-6(5H)-carboxylate], the IC50 amounted to 16.4 ± 1.78 µM.

For the molecule `CC(C)(C)OC(=O)N1CCc2c(sc(NC(=S)NC(=O)c3ccc(Br)cc3)c2C(N)=O)C1` [Compound 5g, Tert-butyl-2–(3-(4-bromobenzoyl)thioureido)-3-carbamoyl-4,7-dihydrothieno[2,3-c]pyridine-6(5H)-carboxylate], the half-maximal inhibitory concentration (IC50) amounted to 9.35 ± 0.97 µM.

For `CC(C)(C)OC(=O)N1CCc2c(sc(NC(=S)NC(=O)c3ccc(F)cc3)c2C(N)=O)C1` [Compound 5h, Tert-butyl-3-carbamoyl-2–(3-(4-fluorobenzoyl)thioureido)-4,7-dihydrothieno[2,3-c]pyridine-6(5H)-carboxylate], the IC50 stood at 5.33 ± 0.65 µM.

On to `CC(C)(C)OC(=O)N1CCc2c(sc(NC(=S)NC(=O)c3ccccc3F)c2C(N)=O)C1` [Compound 5i, Tert-butyl-3-carbamoyl-2–(3-(2-fluorobenzoyl)thioureido)-4,7-dihydrothieno[2,3-c]pyridine-6(5H)-carboxylate], for which the IC50 stood at 7.82 ± 0.71 µM.

As to `CC(C)(C)OC(=O)N1CCc2c(sc(NC(=S)NC(=O)c3ccc(Cl)cc3)c2C(N)=O)C1` [Compound 5j, Tert-butyl-3-carbamoyl-2–(3-(4-chlorobenzoyl)thioureido)-4,7-dihydrothieno[2,3-c]pyridine-6(5H)-carboxylate], the IC50 turned out to be 9.12 ± 0.95 µM.

Consider `CC(C)(C)OC(=O)N1CCc2c(sc(NC(=S)NC(=O)c3ccccc3Cl)c2C(N)=O)C1` [Compound 5k, Tert-butyl-3-carbamoyl-2–(3-(2-chlorobenzoyl)thioureido)-4,7-dihydrothieno[2,3-c]pyridine-6(5H)-carboxylate], for which the IC50 is 8.65 ± 0.93 µM.

`CC(C)(C)OC(=O)N1CCc2c(sc(NC(=S)NC(=O)c3cccc(Cl)c3)c2C(N)=O)C1` [Compound 5l, Tert-butyl-3-carbamoyl-2–(3-(3-chlorobenzoyl)thioureido)-4,7-dihydrothieno[2,3-c]pyridine-6(5H)-carboxylate]: the IC50 is 5.15 ± 0.54 µM.

On to `CC(C)(C)OC(=O)N1CCc2c(sc(NC(=S)NC(=O)c3cccc(C(F)(F)F)c3)c2C(N)=O)C1` [Compound 5m, Tert-butyl-3-carbamoyl-2–(3-(3-(trifluoromethyl)benzoyl)thioureido)-4,7-dihydrothieno[2,3-c]pyridine-6(5H)-carboxylate], for which the IC50 was 2.02 ± 0.27 µM.

As to `CC(C)(C)OC(=O)N1CCc2c(sc(NC(=S)NC(=O)c3ccc(C(F)(F)F)cc3)c2C(N)=O)C1` [Compound 5n, Tert-butyl-3-carbamoyl-2–(3-(4-(trifluoromethyl)benzoyl)thioureido)-4,7-dihydrothieno[2,3-c]pyridine-6(5H)-carboxylate], the IC50 is 12.1 ± 1.35 µM.

For `CC(C)(C)OC(=O)N1CCc2c(sc(NC(=S)NC(=O)c3cccc(Cl)c3Cl)c2C(N)=O)C1` [Compound 5o, Tert-butyl-3-carbamoyl-2–(3-(2,3-dichlorobenzoyl)thioureido)-4,7-dihydrothieno[2,3-c]pyridine-6(5H)-carboxylate], the IC50 was found to be 7.43 ± 0.81 µM.

For the molecule `CC(C)(C)OC(=O)N1CCc2c(sc(NC(=S)NC(=O)C3CCCCC3)c2C(N)=O)C1` [Compound 5p, Tert-butyl-3-carbamoyl-2–(3-(cyclohexanecarbonyl)thioureido)-4,7-dihydrothieno[2,3-c]pyridine-6(5H)-carboxylate], the IC50 was found to be 19.3 ± 1.85 µM.

With `CC(C)(C)OC(=O)N1CCc2c(sc(NC(=S)NC(=O)Cc3cccs3)c2C(N)=O)C1` [Compound 5q, Tert-butyl-3-carbamoyl-2–(3-(2-(thiophen-2-yl)acetyl)thioureido)-4,7-dihydrothieno[2,3-c]pyridine-6(5H)-carboxylate], the IC50 was 15.6 ± 1.64 µM.

In the case of `Cc1ccccc1C(=O)N1CCc2c(sc(NC(=S)NC(=O)c3cccc(C(F)(F)F)c3)c2C(N)=O)C1` [Compound 7a, 6–(2-methylbenzoyl)-2–(3-(3-(trifluoromethyl)benzoyl)thioureido)-4,5,6,7-tetrahydrothieno[2,3-c]pyridine-3-carboxamide], the IC50 came out at 10.2 ± 1.13 µM.

As to `NC(=O)c1c(NC(=S)NC(=O)c2cccc(C(F)(F)F)c2)sc2c1CCN(C(=O)c1ccc(Cl)cc1)C2` [Compound 7b, 6–(4-chlorobenzoyl)-2–(3-(3-(trifluoromethyl)benzoyl)thioureido)-4,5,6,7-tetrahydrothieno[2,3-c]pyridine-3-carboxamide], the IC50 was 13.2 ± 1.39 µM.

Take `CC(C)C(=O)N1CCc2c(sc(NC(=S)NC(=O)c3cccc(C(F)(F)F)c3)c2C(N)=O)C1` [Compound 7e, 6-isobutyryl-2–(3-(3-(trifluoromethyl)benzoyl)thioureido)-4,5,6,7-tetrahydrothieno[2,3-c]pyridine-3-carboxamide]: the IC50 came to 3.08 ± 0.29 µM.

As to `CC(C)CC(=O)N1CCc2c(sc(NC(=S)NC(=O)c3cccc(C(F)(F)F)c3)c2C(N)=O)C1` [Compound 7f, 6–(3-methylbutanoyl)-2–(3-(3-(trifluoromethyl)benzoyl)thioureido)-4,5,6,7-tetrahydrothieno[2,3-c]pyridine-3-carboxamide], the 50% inhibitory concentration (IC50) came out at 3.87 ± 0.35 µM.

For `NC(=O)c1c(NC(=S)NC(=O)c2cccc(C(F)(F)F)c2)sc2c1CCN(C(=O)CCCl)C2` [Compound 7g, 6–(3-chloropropanoyl)-2–(3-(3-(trifluoromethyl)benzoyl)thioureido)-4,5,6,7-tetrahydrothieno[2,3-c]pyridine-3-carboxamide], the IC50 was determined as 5.75 ± 0.63 µM.

As for `C/C=C/C(=O)N1CCc2c(sc(NC(=S)NC(=O)c3cccc(C(F)(F)F)c3)c2C(N)=O)C1` [Compound 7h, (E)-6-(but-2-enoyl)-2–(3-(3-(trifluoromethyl)benzoyl)thioureido)-4,5,6,7-tetrahydrothieno[2,3-c]pyridine-3-carboxamide], the IC50 was found to be 4.14 ± 0.51 µM.

As for `C=C(C)C(=O)N1CCc2c(sc(NC(=S)NC(=O)c3cccc(C(F)(F)F)c3)c2C(N)=O)C1` [Compound 7i, 6-methacryloyl-2–(3-(3-(trifluoromethyl)benzoyl)thioureido)-4,5,6,7-tetrahydrothieno[2,3-c]pyridine-3-carboxamide], the IC50 turned out to be 3.42 ± 0.33 µM.

For the molecule `NC(=O)c1c(NC(=S)NC(=O)c2cccc(C(F)(F)F)c2)sc2c1CCN(C(=O)C1CCC1)C2` [Compound 7k, 6-(cyclobutanecarbonyl)-2–(3-(3-(trifluoromethyl)benzoyl)thioureido)-4,5,6,7-tetrahydrothieno[2,3-c]pyridine-3-carboxamide], the IC50 came out at 0.68 ± 0.07 µM.

In the case of `NC(=O)c1c(NC(=S)NC(=O)c2cccc(C(F)(F)F)c2)sc2c1CCN(C(=O)C1CCCC1)C2` [Compound 7l, 6-(cyclopentanecarbonyl)-2–(3-(3-(trifluoromethyl)benzoyl)thioureido)-4,5,6,7-tetrahydrothieno[2,3-c]pyridine-3-carboxamide], the IC50 amounted to 1.09 ± 0.09 µM.

As for `NC(=O)c1c(NC(=S)NC(=O)c2cccc(C(F)(F)F)c2)sc2c1CCN(C(=O)C1CCCCC1)C2` [Compound 7m, 6-(cyclohexanecarbonyl)-2–(3-(3-(trifluoromethyl)benzoyl)thioureido)-4,5,6,7-tetrahydrothieno[2,3-c]pyridine-3-carboxamide], the IC50 came out at 4.55 ± 0.51 µM.

Consider `NC(=O)c1c(NC(=S)NC(=O)c2cccc(C(F)(F)F)c2)sc2c1CCN(C(=O)C1CCOCC1)C2` [Compound 7n, 6-(tetrahydro-2H-pyran-4-carbonyl)-2–(3-(3-(trifluoromethyl)benzoyl)thioureido)-4,5,6,7-tetrahydrothieno[2,3-c]pyridine-3-carboxamide], for which the IC50 turned out to be 4.87 ± 0.65 µM.
